In the supplement of paper PMC10307832:

Key:
Experiment in all cases: relative viability (nuclei count vs DMSO), 5 days (fraction); higher = more cells survive
201T = test system: 201T
Summary of the method: (§1)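 A single step with final 0.05% Triton X-100, 1% formaldehyde and 1 ug/ml Hoechst fixed the cells and stained nuclei 5 days after treatment. Lung cancer cell lines in 1536-well plates had been treated by pin tool the day after seeding with one drug alone or a fixed anchor-drug dose plus five library-drug doses (not always all listed) in √10 steps, and nuclei were counted on 4× images. Relative viability is the ratio of nuclei in treated wells to nuclei in vehicle wells, taken as the median of duplicate plates.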

BEN = test system: BEN
Summary of the method: as §1

CAL-12T = test system: CAL-12T
Summary of the method: as §1

COR-L 105 = test system: COR-L 105
Summary of the method: as §1

H3255 = test system: H3255
Summary of the method: as §1

HARA = test system: HARA
Summary of the method: as §1

HCC-15 = test system: HCC-15
Summary of the method: as §1

HCC-827 = test system: HCC-827
Summary of the method: as §1

LC-2-ad = test system: LC-2-ad
Summary of the method: as §1

LK-2 = test system: LK-2
Summary of the method: as §1

LU99A = test system: LU99A
Summary of the method: as §1

LXF-289 = test system: LXF-289
Summary of the method: as §1

NCI-H1437 = test system: NCI-H1437
Summary of the method: as §1

NCI-H1651 = test system: NCI-H1651
Summary of the method: as §1

NCI-H1792 = test system: NCI-H1792
Summary of the method: as §1

NCI-H2085 = test system: NCI-H2085
Summary of the method: as §1

NCI-H2228 = test system: NCI-H2228
Summary of the method: as §1

NCI-H23 = test system: NCI-H23
Summary of the method: as §1

NCI-H2405 = test system: NCI-H2405
Summary of the method: as §1

NCI-H322M = test system: NCI-H322M
Summary of the method: as §1

RERF-LC-KJ = test system: RERF-LC-KJ
Summary of the method: as §1

UMC-11 = test system: UMC-11
Summary of the method: as §1

Q: Which results are given for `O=C(O)CCCCC(CCSCc1ccccc1)SCc1ccccc1` (stereo not given) [CPI-613] + CS(=O)(=O)CCNCc1ccc(-c2ccc3ncnc(Nc4ccc(OCc5cccc(F)c5)c(Cl)c4)c3c2)o1 [Lapatinib] (partner 2 µM)?
A: relative viability (201T; first compound 5 µM): 1.09; relative viability (201T; first compound 15.81 µM): 0.958; relative viability (201T; first compound 50 µM): 0.953; relative viability (201T; first compound 158.11 µM): 0.978; relative viability (201T; first compound 500 µM): 0.972; relative viability (BEN; first compound 5 µM): 0.673; relative viability (BEN; first compound 15.81 µM): 0.577; relative viability (BEN; first compound 50 µM): 0.526; relative viability (BEN; first compound 158.11 µM): 0.502; relative viability (BEN; first compound 500 µM): 0.624; relative viability (CAL-12T; first compound 5 µM): 0.605; relative viability (CAL-12T; first compound 15.81 µM): 0.532; relative viability (CAL-12T; first compound 50 µM): 0.603; relative viability (CAL-12T; first compound 158.11 µM): 0.551; relative viability (CAL-12T; first compound 500 µM): 0.56; relative viability (COR-L 105; first compound 5 µM): 0.364; relative viability (COR-L 105; first compound 15.81 µM): 0.323; relative viability (COR-L 105; first compound 50 µM): 0.377; relative viability (COR-L 105; first compound 158.11 µM): 0.291; relative viability (COR-L 105; first compound 500 µM): 0.263; relative viability (H3255; first compound 5 µM): 0.234; relative viability (H3255; first compound 15.81 µM): 0.253; relative viability (H3255; first compound 50 µM): 0.291; relative viability (H3255; first compound 158.11 µM): 0.256; relative viability (H3255; first compound 500 µM): 0.25; relative viability (HARA; first compound 5 µM): 0.702; relative viability (HARA; first compound 15.81 µM): 0.678; relative viability (HARA; first compound 50 µM): 0.792; relative viability (HARA; first compound 158.11 µM): 0.521; relative viability (HARA; first compound 500 µM): 0.0307; relative viability (HCC-15; first compound 5 µM): 0.785; relative viability (HCC-15; first compound 15.81 µM): 0.801; relative viability (HCC-15; first compound 50 µM): 0.682; relative viability (HCC-15; first compound 158.11 µM): 0.599; relative viability (HCC-15; first compound 500 µM): 0.285; relative viability (HCC-827; first compound 5 µM): 0.212; relative viability (HCC-827; first compound 15.81 µM): 0.181; relative viability (HCC-827; first compound 50 µM): 0.196; relative viability (HCC-827; first compound 158.11 µM): 0.173; relative viability (HCC-827; first compound 500 µM): 0.0605; relative viability (LC-2-ad; first compound 5 µM): 0.746; relative viability (LC-2-ad; first compound 15.81 µM): 0.859; relative viability (LC-2-ad; first compound 50 µM): 0.868; relative viability (LC-2-ad; first compound 158.11 µM): 0.255; relative viability (LC-2-ad; first compound 500 µM): 0.0059; relative viability (LK-2; first compound 5 µM): 0.967; relative viability (LK-2; first compound 15.81 µM): 0.864; relative viability (LK-2; first compound 50 µM): 0.876; relative viability (LK-2; first compound 158.11 µM): 0.905; relative viability (LK-2; first compound 500 µM): 0.853; relative viability (LU99A; first compound 5 µM): 0.937; relative viability (LU99A; first compound 15.81 µM): 0.918; relative viability (LU99A; first compound 50 µM): 0.887; relative viability (LU99A; first compound 158.11 µM): 0.608; relative viability (LU99A; first compound 500 µM): 0.0424; relative viability (LXF-289; first compound 5 µM): 0.842; relative viability (LXF-289; first compound 15.81 µM): 0.881; relative viability (LXF-289; first compound 50 µM): 0.835; relative viability (LXF-289; first compound 158.11 µM): 0.585; relative viability (LXF-289; first compound 500 µM): 0.0115; relative viability (NCI-H1437; first compound 5 µM): 0.772; relative viability (NCI-H1437; first compound 15.81 µM): 0.685; relative viability (NCI-H1437; first compound 50 µM): 0.746; relative viability (NCI-H1437; first compound 158.11 µM): 0.185; relative viability (NCI-H1437; first compound 500 µM): 0.0285; relative viability (NCI-H1651; first compound 5 µM): 0.732; relative viability (NCI-H1651; first compound 15.81 µM): 0.71; relative viability (NCI-H1651; first compound 50 µM): 0.781; relative viability (NCI-H1651; first compound 158.11 µM): 0.312; relative viability (NCI-H1651; first compound 500 µM): 0.0775; relative viability (NCI-H1792; first compound 5 µM): 0.841; relative viability (NCI-H1792; first compound 15.81 µM): 0.846; relative viability (NCI-H1792; first compound 50 µM): 0.838; relative viability (NCI-H1792; first compound 158.11 µM): 0.72; relative viability (NCI-H1792; first compound 500 µM): 0.9; relative viability (NCI-H2085; first compound 5 µM): 0.813; relative viability (NCI-H2085; first compound 15.81 µM): 0.728; relative viability (NCI-H2085; first compound 50 µM): 0.709; relative viability (NCI-H2085; first compound 158.11 µM): 0.674; relative viability (NCI-H2085; first compound 500 µM): 0.516; relative viability (NCI-H2228; first compound 5 µM): 0.817; relative viability (NCI-H2228; first compound 15.81 µM): 0.979; relative viability (NCI-H2228; first compound 50 µM): 0.832; relative viability (NCI-H2228; first compound 158.11 µM): 0.406; relative viability (NCI-H2228; first compound 500 µM): 0.0151; relative viability (NCI-H23; first compound 5 µM): 0.95; relative viability (NCI-H23; first compound 15.81 µM): 0.812; relative viability (NCI-H23; first compound 50 µM): 0.873; relative viability (NCI-H23; first compound 158.11 µM): 0.261; relative viability (NCI-H23; first compound 500 µM): 0.0192; relative viability (NCI-H2405; first compound 5 µM): 1.09; relative viability (NCI-H2405; first compound 15.81 µM): 1.12; relative viability (NCI-H2405; first compound 50 µM): 1.09; relative viability (NCI-H2405; first compound 158.11 µM): 0.979; relative viability (NCI-H2405; first compound 500 µM): 0.902; relative viability (NCI-H322M; first compound 5 µM): 0.577; relative viability (NCI-H322M; first compound 15.81 µM): 0.485; relative viability (NCI-H322M; first compound 50 µM): 0.572; relative viability (NCI-H322M; first compound 158.11 µM): 0.552; relative viability (NCI-H322M; first compound 500 µM): 0.707; relative viability (RERF-LC-KJ; first compound 5 µM): 0.857; relative viability (RERF-LC-KJ; first compound 15.81 µM): 0.826; relative viability (RERF-LC-KJ; first compound 50 µM): 0.782; relative viability (RERF-LC-KJ; first compound 158.11 µM): 0.854; relative viability (RERF-LC-KJ; first compound 500 µM): 0.819; relative viability (UMC-11; first compound 5 µM): 1.08; relative viability (UMC-11; first compound 15.81 µM): 1.11; relative viability (UMC-11; first compound 50 µM): 0.789; relative viability (UMC-11; first compound 158.11 µM): 0.438; relative viability (UMC-11; first compound 500 µM): 0.119
